Test results as given in the kinase profiling compilation of Christmann-Franck et al. (2016).

Legend:
Assay in all cases: KINOMEscan competition binding
Settings in all cases: compound 10.0 µM
AAK1 (human) = AAK1 (human) (UniProt Q2M2I8)
BRSK1 (human) = BRSK1 (human) (UniProt Q8TDC3)
CAMK2B (human) = CAMK2B (human) (UniProt Q13554)
CDC42BPG (human) = CDC42BPG (human) (UniProt Q6DT37)
CDK7 (human) = CDK7 (human) (UniProt P50613)
CSF1R (human) = CSF1R (human) (UniProt P07333)
CSNK1G3 (human) = CSNK1G3 (human) (UniProt Q9Y6M4)
DAPK2 (human) = DAPK2 (human) (UniProt Q9UIK4)
DCLK2 (human) = DCLK2 (human) (UniProt Q8N568)
GAK (human) = GAK (human) (UniProt O14976)
GSK3A (human) = GSK3A (human) (UniProt P49840)
HIPK1 (human) = HIPK1 (human) (UniProt Q86Z02)
[1] = biological target: JAK2 JH1 catalytic (human) (UniProt O60674)
MAP3K7 (human) = MAP3K7 (human) (UniProt O43318)
MAP4K2 (human) = MAP4K2 (human) (UniProt Q12851)
MAPK13 (human) = MAPK13 (human) (UniProt O15264)
MAPK4 (human) = MAPK4 (human) (UniProt P31152)
MAPK7 (human) = MAPK7 (human) (UniProt Q13164)
MST1R (human) = MST1R (human) (UniProt Q04912)
NEK1 (human) = NEK1 (human) (UniProt Q96PY6)
NEK5 (human) = NEK5 (human) (UniProt Q6P3R8)
PAK4 (human) = PAK4 (human) (UniProt O96013)
PDGFRB (human) = PDGFRB (human) (UniProt P09619)
PIM2 (human) = PIM2 (human) (UniProt Q9P1W9)
PIP4K2B (human) = PIP4K2B (human) (UniProt P78356)
PRKACA (human) = PRKACA (human) (UniProt P17612)
PRKCQ (human) = PRKCQ (human) (UniProt Q04759)
STK11 (human) = STK11 (human) (UniProt Q15831)
TAOK1 (human) = TAOK1 (human) (UniProt Q7L7X3)
TGFBR2 (human) = TGFBR2 (human) (UniProt P37173)
TTK (human) = TTK (human) (UniProt P33981)
ULK1 (human) = ULK1 (human) (UniProt O75385)
WEE1 (human) = WEE1 (human) (UniProt P30291)
MAP3K15 (human) = MAP3K15 (human) (UniProt Q6ZN16)
MAP3K6 (human) = MAP3K6 (human) (UniProt O95382)
SIK3 (human) = SIK3 (human) (UniProt Q9Y2K2)

Chain of WEE1 (human) (P30291 whole entry, looked up): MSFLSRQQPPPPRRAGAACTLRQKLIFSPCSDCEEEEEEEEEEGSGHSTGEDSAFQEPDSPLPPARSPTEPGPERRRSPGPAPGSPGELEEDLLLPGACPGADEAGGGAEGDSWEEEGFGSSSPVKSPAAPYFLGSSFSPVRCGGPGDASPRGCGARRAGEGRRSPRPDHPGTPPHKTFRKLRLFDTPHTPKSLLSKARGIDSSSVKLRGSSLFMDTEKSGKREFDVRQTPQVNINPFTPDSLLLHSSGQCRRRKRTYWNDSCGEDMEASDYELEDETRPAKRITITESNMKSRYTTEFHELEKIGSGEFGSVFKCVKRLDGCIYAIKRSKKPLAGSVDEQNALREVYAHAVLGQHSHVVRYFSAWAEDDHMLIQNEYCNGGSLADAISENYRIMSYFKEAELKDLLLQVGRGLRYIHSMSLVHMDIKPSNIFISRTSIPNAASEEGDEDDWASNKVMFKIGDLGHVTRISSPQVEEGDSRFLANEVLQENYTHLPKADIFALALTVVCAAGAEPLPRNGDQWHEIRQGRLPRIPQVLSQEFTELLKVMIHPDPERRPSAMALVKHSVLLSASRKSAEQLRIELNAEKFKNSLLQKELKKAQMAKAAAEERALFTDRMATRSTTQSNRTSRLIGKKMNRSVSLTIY
Chain of NEK1 (human) (Q96PY6 whole entry, looked up): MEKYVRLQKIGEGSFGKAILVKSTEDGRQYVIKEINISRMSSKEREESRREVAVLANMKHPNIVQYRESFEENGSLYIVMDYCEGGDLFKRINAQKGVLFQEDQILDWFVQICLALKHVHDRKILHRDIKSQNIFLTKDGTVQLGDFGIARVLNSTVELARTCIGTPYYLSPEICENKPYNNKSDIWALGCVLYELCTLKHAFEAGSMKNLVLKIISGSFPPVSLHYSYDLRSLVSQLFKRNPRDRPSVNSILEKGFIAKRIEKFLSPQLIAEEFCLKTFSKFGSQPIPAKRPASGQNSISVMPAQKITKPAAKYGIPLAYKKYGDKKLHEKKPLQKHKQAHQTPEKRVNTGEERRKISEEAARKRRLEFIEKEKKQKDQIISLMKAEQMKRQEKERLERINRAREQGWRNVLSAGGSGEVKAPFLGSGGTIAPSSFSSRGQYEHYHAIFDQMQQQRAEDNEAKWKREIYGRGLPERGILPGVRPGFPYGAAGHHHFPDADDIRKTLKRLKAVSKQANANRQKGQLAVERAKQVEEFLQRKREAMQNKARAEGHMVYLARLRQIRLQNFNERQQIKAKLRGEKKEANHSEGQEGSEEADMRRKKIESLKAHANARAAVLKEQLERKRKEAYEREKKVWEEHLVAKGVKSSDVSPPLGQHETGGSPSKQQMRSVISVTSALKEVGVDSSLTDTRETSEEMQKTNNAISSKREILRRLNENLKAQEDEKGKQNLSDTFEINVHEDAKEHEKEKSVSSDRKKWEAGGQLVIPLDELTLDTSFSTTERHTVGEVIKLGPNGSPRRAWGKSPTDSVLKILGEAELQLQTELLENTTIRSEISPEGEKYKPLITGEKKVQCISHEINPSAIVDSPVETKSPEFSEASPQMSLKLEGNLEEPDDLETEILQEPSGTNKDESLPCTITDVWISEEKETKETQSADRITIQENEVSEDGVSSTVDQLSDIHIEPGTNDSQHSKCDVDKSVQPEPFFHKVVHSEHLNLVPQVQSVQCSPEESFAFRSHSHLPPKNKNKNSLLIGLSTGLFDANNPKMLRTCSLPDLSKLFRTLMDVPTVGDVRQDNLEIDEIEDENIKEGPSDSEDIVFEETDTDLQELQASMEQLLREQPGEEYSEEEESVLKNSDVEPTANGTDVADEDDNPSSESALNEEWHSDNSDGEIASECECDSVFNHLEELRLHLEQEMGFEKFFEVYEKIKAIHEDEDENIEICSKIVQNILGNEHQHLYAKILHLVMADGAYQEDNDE
Chain of JAK2 JH1 catalytic (human) (O60674 whole entry, looked up): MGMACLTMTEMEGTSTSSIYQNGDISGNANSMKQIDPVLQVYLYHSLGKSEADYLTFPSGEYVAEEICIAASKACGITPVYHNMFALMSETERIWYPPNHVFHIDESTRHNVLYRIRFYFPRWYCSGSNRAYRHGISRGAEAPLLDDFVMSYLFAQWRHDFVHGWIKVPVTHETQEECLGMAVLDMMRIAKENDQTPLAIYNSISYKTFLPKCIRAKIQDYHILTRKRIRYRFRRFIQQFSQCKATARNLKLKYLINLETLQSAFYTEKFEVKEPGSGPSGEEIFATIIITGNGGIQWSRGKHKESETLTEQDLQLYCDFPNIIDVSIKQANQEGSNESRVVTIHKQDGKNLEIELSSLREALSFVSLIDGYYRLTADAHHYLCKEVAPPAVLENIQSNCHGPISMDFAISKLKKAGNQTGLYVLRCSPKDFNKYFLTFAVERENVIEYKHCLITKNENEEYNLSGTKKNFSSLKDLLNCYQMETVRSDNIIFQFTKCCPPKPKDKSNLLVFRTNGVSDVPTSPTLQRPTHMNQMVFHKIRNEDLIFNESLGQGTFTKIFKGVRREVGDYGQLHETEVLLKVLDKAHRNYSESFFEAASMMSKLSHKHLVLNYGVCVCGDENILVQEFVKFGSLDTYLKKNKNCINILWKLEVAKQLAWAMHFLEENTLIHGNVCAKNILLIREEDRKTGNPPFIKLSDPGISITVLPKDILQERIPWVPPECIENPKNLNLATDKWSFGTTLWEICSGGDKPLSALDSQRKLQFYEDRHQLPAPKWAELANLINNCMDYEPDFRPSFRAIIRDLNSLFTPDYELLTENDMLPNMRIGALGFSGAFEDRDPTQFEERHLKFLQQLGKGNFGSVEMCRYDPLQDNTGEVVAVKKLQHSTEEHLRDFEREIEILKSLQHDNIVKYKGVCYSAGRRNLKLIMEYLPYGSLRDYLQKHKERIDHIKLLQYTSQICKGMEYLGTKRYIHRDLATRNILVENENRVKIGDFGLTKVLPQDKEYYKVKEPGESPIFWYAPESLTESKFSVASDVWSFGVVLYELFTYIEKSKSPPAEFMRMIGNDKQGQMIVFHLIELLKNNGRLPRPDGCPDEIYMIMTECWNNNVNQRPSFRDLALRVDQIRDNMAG
Chain of AAK1 (human) (Q2M2I8 whole entry, looked up): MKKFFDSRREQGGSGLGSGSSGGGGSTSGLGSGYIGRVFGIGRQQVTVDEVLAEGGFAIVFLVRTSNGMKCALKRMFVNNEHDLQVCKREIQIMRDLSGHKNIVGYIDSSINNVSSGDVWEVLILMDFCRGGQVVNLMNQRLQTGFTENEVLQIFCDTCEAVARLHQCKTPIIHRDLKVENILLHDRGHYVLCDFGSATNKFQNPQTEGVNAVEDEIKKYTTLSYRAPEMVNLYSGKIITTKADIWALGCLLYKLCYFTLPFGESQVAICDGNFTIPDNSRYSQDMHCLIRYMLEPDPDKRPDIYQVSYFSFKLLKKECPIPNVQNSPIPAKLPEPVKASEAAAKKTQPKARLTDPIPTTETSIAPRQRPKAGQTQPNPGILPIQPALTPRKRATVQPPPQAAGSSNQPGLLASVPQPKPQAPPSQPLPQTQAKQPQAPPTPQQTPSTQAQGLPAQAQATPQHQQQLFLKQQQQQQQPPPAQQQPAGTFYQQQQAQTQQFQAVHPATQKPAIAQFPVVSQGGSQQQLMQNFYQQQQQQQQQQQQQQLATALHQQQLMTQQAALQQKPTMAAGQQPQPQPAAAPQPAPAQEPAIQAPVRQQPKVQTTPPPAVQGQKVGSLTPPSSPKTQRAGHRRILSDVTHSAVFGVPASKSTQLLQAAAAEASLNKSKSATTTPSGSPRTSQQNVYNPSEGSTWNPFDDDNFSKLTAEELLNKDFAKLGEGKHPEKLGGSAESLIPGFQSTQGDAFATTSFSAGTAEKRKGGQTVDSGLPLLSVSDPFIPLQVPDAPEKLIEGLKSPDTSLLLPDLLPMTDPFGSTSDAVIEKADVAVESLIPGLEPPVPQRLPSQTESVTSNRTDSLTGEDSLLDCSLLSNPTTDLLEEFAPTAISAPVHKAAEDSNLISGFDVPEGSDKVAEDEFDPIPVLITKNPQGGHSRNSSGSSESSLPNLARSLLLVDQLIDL
Chain of CSF1R (human) (P07333 whole entry, looked up): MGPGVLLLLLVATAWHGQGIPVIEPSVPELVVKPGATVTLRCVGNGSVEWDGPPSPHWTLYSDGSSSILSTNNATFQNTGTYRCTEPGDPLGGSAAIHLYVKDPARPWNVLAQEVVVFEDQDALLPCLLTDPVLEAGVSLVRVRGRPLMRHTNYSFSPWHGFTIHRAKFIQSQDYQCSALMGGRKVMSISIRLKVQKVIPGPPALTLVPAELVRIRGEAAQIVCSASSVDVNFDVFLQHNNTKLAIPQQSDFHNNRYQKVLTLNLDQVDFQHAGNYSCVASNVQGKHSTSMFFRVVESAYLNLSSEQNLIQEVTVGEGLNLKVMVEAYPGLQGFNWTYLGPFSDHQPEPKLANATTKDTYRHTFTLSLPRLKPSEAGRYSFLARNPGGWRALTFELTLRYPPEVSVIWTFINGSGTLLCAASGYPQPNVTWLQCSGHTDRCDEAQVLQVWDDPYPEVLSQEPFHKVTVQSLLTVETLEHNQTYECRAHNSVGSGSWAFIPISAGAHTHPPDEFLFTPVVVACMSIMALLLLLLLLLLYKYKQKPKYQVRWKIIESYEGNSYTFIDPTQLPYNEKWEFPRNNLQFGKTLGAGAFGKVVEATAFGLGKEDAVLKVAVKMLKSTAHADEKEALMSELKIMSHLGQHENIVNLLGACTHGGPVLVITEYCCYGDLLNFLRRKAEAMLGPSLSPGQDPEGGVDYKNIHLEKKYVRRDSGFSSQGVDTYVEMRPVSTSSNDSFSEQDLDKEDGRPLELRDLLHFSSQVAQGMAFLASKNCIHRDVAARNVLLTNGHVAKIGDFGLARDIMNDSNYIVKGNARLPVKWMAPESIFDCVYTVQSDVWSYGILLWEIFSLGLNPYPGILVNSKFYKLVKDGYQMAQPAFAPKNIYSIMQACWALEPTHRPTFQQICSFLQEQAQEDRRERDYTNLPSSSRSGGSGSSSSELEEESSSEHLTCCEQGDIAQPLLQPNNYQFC

Compound	kinase still bound, per cent of control (AAK1 (human)) [%]	kinase still bound, per cent of control (BRSK1 (human)) [%]	kinase still bound, per cent of control (CAMK2B (human)) [%]	kinase still bound, per cent of control (CDC42BPG (human)) [%]	kinase still bound, per cent of control (CDK7 (human)) [%]	kinase still bound, per cent of control (CSF1R (human)) [%]	kinase still bound, per cent of control (CSNK1G3 (human)) [%]	kinase still bound, per cent of control (DAPK2 (human)) [%]	kinase still bound, per cent of control (DCLK2 (human)) [%]	kinase still bound, per cent of control (GAK (human)) [%]	kinase still bound, per cent of control (GSK3A (human)) [%]	kinase still bound, per cent of control [1] [%]	kinase still bound, per cent of control (MAPK4 (human)) [%]	kinase still bound, per cent of control (MAPK7 (human)) [%]	kinase still bound, per cent of control (NEK1 (human)) [%]	kinase still bound, per cent of control (NEK5 (human)) [%]	kinase still bound, per cent of control (PAK4 (human)) [%]	kinase still bound, per cent of control (PDGFRB (human)) [%]	kinase still bound, per cent of control (PIM2 (human)) [%]	kinase still bound, per cent of control (PIP4K2B (human)) [%]	further results
COc1cc(C)c(Sc2cnc(NC(=O)c3ccc(CNC(C)C(C)C)cc3)s2)cc1C(=O)N1CCN(C(C)=O)CC1 (stereo not drawn)	100	100	100	100	1.4	100	100	28	100	100	100	100	100	100	100	100	100	100	100	100	kinase still bound, per cent of control (HIPK1 (human)): 100%; kinase still bound, per cent of control (MAP3K7 (human)): 100%; kinase still bound, per cent of control (MAP4K2 (human)): 100%; kinase still bound, per cent of control (MAPK13 (human)): 100%; kinase still bound, per cent of control (MST1R (human)): 100%; kinase still bound, per cent of control (PRKACA (human)): 100%; kinase still bound, per cent of control (PRKCQ (human)): 100%; kinase still bound, per cent of control (STK11 (human)): 100%; kinase still bound, per cent of control (TAOK1 (human)): 16%; kinase still bound, per cent of control (TGFBR2 (human)): 100%; kinase still bound, per cent of control (TTK (human)): 100%; kinase still bound, per cent of control (ULK1 (human)): 25%; kinase still bound, per cent of control (WEE1 (human)): 100%
COc1ccc(N(C(=O)Oc2cc(C(=O)Nc3cccc(C(F)(F)F)c3)ccc2C)c2ccnc(Nc3ccc(N4CCN(C)CC4)cc3)n2)c(OC)c1	100	100	100	100	100	0.35	100	100	100	26	100	2.3	100	15	100	100	100	0.45	100	100	kinase still bound, per cent of control (PRKACA (human)): 33%; kinase still bound, per cent of control (PRKCQ (human)): 100%; kinase still bound, per cent of control (STK11 (human)): 100%; kinase still bound, per cent of control (TGFBR2 (human)): 100%; kinase still bound, per cent of control (TTK (human)): 100%; kinase still bound, per cent of control (WEE1 (human)): 100%
COc1cc(N2CCC(C(N)=O)CC2)ccc1Nc1nc(N)c(Cl)c(Nc2ccccc2S(=O)(=O)C(C)C)n1	100	100	100	100	100	100	100	100	100	2.5	100	100	100	100	100	100	100	100	100	100	kinase still bound, per cent of control (HIPK1 (human)): 100%; kinase still bound, per cent of control (MAP3K7 (human)): 100%; kinase still bound, per cent of control (MAP4K2 (human)): 100%; kinase still bound, per cent of control (MAPK13 (human)): 100%; kinase still bound, per cent of control (MST1R (human)): 100%; kinase still bound, per cent of control (PRKACA (human)): 100%; kinase still bound, per cent of control (PRKCQ (human)): 100%; kinase still bound, per cent of control (STK11 (human)): 100%; kinase still bound, per cent of control (TAOK1 (human)): 100%; kinase still bound, per cent of control (TGFBR2 (human)): 100%; kinase still bound, per cent of control (TTK (human)): 7%; kinase still bound, per cent of control (ULK1 (human)): 100%; kinase still bound, per cent of control (WEE1 (human)): 100%
Cc1cn(-c2cc(C(=O)Nc3ccc(C)c(NC(=O)c4ccno4)c3)cc(C(F)(F)F)c2)cn1	100	100	100	100	100	0.2	100	100	100	100	100	100	100	100	100	100	100	0	100	100	kinase still bound, per cent of control (HIPK1 (human)): 100%; kinase still bound, per cent of control (MAP3K15 (human)): 100%; kinase still bound, per cent of control (MAP3K6 (human)): 100%; kinase still bound, per cent of control (MAP3K7 (human)): 100%; kinase still bound, per cent of control (MAP4K2 (human)): 100%; kinase still bound, per cent of control (MAPK13 (human)): 100%; kinase still bound, per cent of control (MST1R (human)): 100%; kinase still bound, per cent of control (PRKACA (human)): 100%; kinase still bound, per cent of control (PRKCQ (human)): 100%; kinase still bound, per cent of control (SIK3 (human)): 100%; kinase still bound, per cent of control (STK11 (human)): 100%; kinase still bound, per cent of control (TAOK1 (human)): 100%; kinase still bound, per cent of control (TGFBR2 (human)): 100%; kinase still bound, per cent of control (TTK (human)): 100%; kinase still bound, per cent of control (ULK1 (human)): 100%; kinase still bound, per cent of control (WEE1 (human)): 100%
